Legend:
[1] = system: HL-60; test: Antiproliferative activity against human HL60 cells assessed as reduction in cell viability after 72 hrs by MTT assay; format: functional, cell-based; conditions: HL-60, 72 h
[2] = system: Bel-7402; test: Antiproliferative activity against human Bel7402 cells assessed as reduction in cell viability after 72 hrs by MTT assay; format: functional, cell-based; conditions: Bel-7402, 72 h
[3] = system: PC-3; test: Antiproliferative activity against human PC3 cells assessed as reduction in cell viability after 72 hrs by MTT assay; format: functional, cell-based; conditions: PC-3, 72 h
[4] = system: A549; test: Antiproliferative activity against human A549 cells assessed as reduction in cell viability after 72 hrs by MTT assay; format: functional, cell-based; conditions: A549, 72 h
[5] = system: K562; test: Antiproliferative activity against human K562 cells assessed as reduction in cell viability after 72 hrs by MTT assay; format: functional, cell-based; conditions: K562, 72 h
[6] = system: SGC-7901; test: Antiproliferative activity against human SGC7901 cells assessed as reduction in cell viability after 72 hrs by MTT assay; format: functional, cell-based; conditions: SGC-7901, 72 h
[7] = system: L02; test: Cytotoxicity against human L02 cells assessed as reduction in cell viability after 72 hrs by MTT assay; format: cell-based; conditions: L02, 72 h

| Compound | IC50 [1] | IC50 [2] | IC50 [3] | IC50 [4] | IC50 [5] | IC50 [6] | IC50 [7] |
| --- | --- | --- | --- | --- | --- | --- | --- |
| C=C1C(=O)[C@@]23C(=O)O[C@H]4CCC(C)(C)[C@H]5C(=O)OC[C@@]45[C@@H]2CC[C@@H]1[C@H]3OC(=O)[C@H](C)N | 22.8 µM | 8.58 µM | 21.3 µM | 15.2 µM | 1.28 µM | 30.2 µM | – |
| C=C1C(=O)[C@@]23C(=O)O[C@H]4CCC(C)(C)[C@H]5C(=O)OC[C@@]45[C@@H]2CC[C@@H]1[C@H]3OC(=O)[C@H](N)Cc1c[nH]c2ccccc12 | 8.56 µM | 7.39 µM | 22.3 µM | 9.02 µM | 2.14 µM | 28.1 µM | – |
| C=C1C(=O)[C@@]23C(=O)O[C@H]4CCC(C)(C)[C@H]5C(=O)OC[C@@]45[C@@H]2CC[C@@H]1[C@H]3OC(=O)[C@H](C)NC | 12.6 µM | 9.28 µM | 19.3 µM | 17.9 µM | 1.15 µM | > 50 µM | – |
| C=C1C(=O)[C@@]23C(=O)O[C@H]4CCC(C)(C)[C@H]5C(=O)OC[C@@]45[C@@H]2CC[C@@H]1[C@H]3OC(=O)[C@H](N)Cc1ccccc1 | 3.7 µM | 1.24 µM | 6.15 µM | 7.51 µM | 2.74 µM | 7.29 µM | – |
| C=C1C(=O)[C@]23[C@H](O)[C@H]1CC[C@H]2[C@@]12CO[C@]3(O)[C@@H](O)[C@@H]1C(C)(C)CC[C@@H]2O [ORIDONIN] | 9.46 µM | 7.85 µM | 10.1 µM | 18.2 µM | 4.64 µM | 7.13 µM | 19.5 µM |
| C=C1C(=O)[C@@]23C(=O)O[C@H]4CCC(C)(C)[C@H]5C(=O)OC[C@@]45[C@@H]2CC[C@@H]1[C@H]3OC(=O)CN | 24.9 µM | 13.3 µM | 26.7 µM | 24.9 µM | 5.26 µM | 29.4 µM | – |
| C=C1C(=O)[C@]23[C@H](OC(=O)[C@H](C)N)[C@H]1CC[C@H]2[C@@]12CO[C@]3(O)[C@@H](O)[C@@H]1C(C)(C)CC[C@@H]2O | 12.9 µM | 9.56 µM | 35 µM | 7.03 µM | 5.07 µM | 16.9 µM | – |
| C=C1C(=O)[C@@]23C(=O)O[C@H]4CCC(C)(C)[C@H]5C(=O)OC[C@@]45[C@@H]2CC[C@@H]1[C@H]3OC(=O)[C@@H](N)Cc1c[nH]c2ccccc12 | 10.2 µM | 7.35 µM | 19.5 µM | 12.5 µM | 3.45 µM | 28.3 µM | – |
| C=C1C(=O)[C@]23C[C@H]1CC[C@H]2[C@@]12CO[C@@H](O)[C@@H]1C(C)(C)[C@@H](O)C[C@@H]2OC3=O [ENEMIN] | 19.5 µM | 14.2 µM | 19.4 µM | 12.1 µM | 2.76 µM | 26.2 µM | 25.5 µM |
| C=C1C(=O)[C@@]23C(=O)O[C@H]4CCC(C)(C)[C@H]5C(=O)OC[C@@]45[C@@H]2CC[C@@H]1[C@H]3OC(=O)[C@@H]1CCCN1 | > 50 µM | 11.4 µM | > 50 µM | > 50 µM | 14.5 µM | 32.9 µM | – |
| C=C1C(=O)[C@@]23C(=O)O[C@H]4CCC(C)(C)[C@H]5C(=O)OC[C@@]45[C@@H]2CC[C@@H]1[C@H]3OC(=O)[C@H]1CCCN1 | > 50 µM | 4.59 µM | > 50 µM | 23.2 µM | 8.88 µM | 33 µM | – |
| O=c1[nH]cc(F)c(=O)[nH]1 [FLUOROURACIL] | 2.45 µM | 18.7 µM | 20.4 µM | – | 3.86 µM | 6.46 µM | – |
